Common to all, as to experiment: growth of human tumour cells (NCI), 48 h
Experiment [1] concerns SNB-75 CNS.
Experiment [2] relates to LOX IMVI melanoma.
Experiment [3] relates to KM12 colon.
The subject of experiment [4] is SW-620 colon.
Experiment [5] concerns K-562 leukemia.
Experiment [6] has as its system OVCAR-3 ovarian.
For experiment [7], the system named is NCI-H226 lung.
In experiment [8] the test system is U251 CNS.
For experiment [9], the system named is OVCAR-5 ovarian.
Experiment [10] has as its system SNB-19 CNS.
Experiment [11] has as its system RPMI-8226 leukemia.
The subject of experiment [12] is A498 renal.
In experiment [13] the test system is NCI-H23 lung.
Experiment [14] relates to HL-60(TB) leukemia.
Experiment [15] has as its system TK-10 renal.
Experiment [16] relates to SN12C renal.
For experiment [17], the system named is MOLT-4 leukemia.

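Tested at 5 concentrations; 48 h exposure; 96-well plates; endpoints linearly interpolated, else capped at highest concentration. TGI is the concentration that stops growth completely.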 A value given as a limit tells only on which side of the number the result lay.

TGI data for 18 molecules are collected here from PubChem BioAssay (NCI).

Turning to `C#CC(C)(C)OCCCCOc1cc(O)c2c(=O)c3ccccc3n(C)c2c1`, the TGI in experiment [1], in experiment [2], in experiment [3], in experiment [4], in experiment [5] and in experiment [6] was over 100 µM in each case. In addition, the TGI in experiment [7], in experiment [8], in experiment [9], in experiment [10], in [11] and in experiment [12] was over 100 µM each time. Further, the TGI in experiment [13], in [14], in [15] and in experiment [16] was over 100 µM in each case.

Regarding `CC12C3CC4C5CC(C(C53)[C@@H]1NCc1ccccc1)C42` (stereo partly drawn), the TGI in [1], in experiment [2], in experiment [3], in experiment [4], in [5] and in experiment [17] was over 100 µM in each case. The TGI in experiment [6], in experiment [7], in [8], in experiment [9], in experiment [10] and in experiment [11] was over 100 µM in each case. The TGI in experiment [12], in [13], in experiment [14], in experiment [15] and in experiment [16] was over 100 µM throughout.

Consider `C=CCCCN1CCCCC1=S`, for which the TGI in experiment [1], in experiment [2], in [3], in [4], in experiment [5] and in experiment [17] was over 100 µM each time. The TGI in experiment [6], in [7], in experiment [8], in experiment [9], in experiment [10] and in [11] was over 100 µM each time. Further, the TGI in experiment [13], in experiment [14], in experiment [15] and in experiment [16] was over 100 µM throughout.

Consider `CN1N=C2c3ccccc3OC(c3ccccc3)[C@H]2C1c1ccccc1` (stereo partly drawn), for which the TGI in [2], in experiment [3], in experiment [4], in experiment [5], in experiment [17] and in experiment [6] was over 100 µM throughout. For the same molecule, the TGI in experiment [7], in experiment [8], in experiment [9], in [10], in experiment [11] and in experiment [12] was over 100 µM in each case. Besides, the TGI in experiment [13], in [14], in experiment [15] and in [16] was over 100 µM each time.

Regarding `N#Cc1ccccc1NC(=O)C(=O)C(C(=O)c1ccncc1)C1OC(=O)c2ccccc21` (stereo not drawn), the TGI in experiment [1], in [2], in experiment [3], in experiment [4], in [5] and in experiment [6] was over 100 µM throughout. For the same molecule, the TGI in experiment [7], in experiment [8], in [9], in experiment [10], in experiment [12] and in [13] was over 100 µM each time. Further, the TGI in experiment [14], in [15] and in experiment [16] was over 100 µM in each case.

With `CCc1ccc(Cc2ccc(CC)c(NC(=O)C(=O)C3NC(=S)NC3=O)c2CC)c(CC)c1NC(=O)C(=O)C1NC(=S)NC1=O` (stereo not drawn), the TGI in experiment [1], in experiment [2], in [3], in experiment [4], in experiment [5] and in [17] was over 100 µM each time. In addition, the TGI in [6], in [8], in experiment [9], in experiment [10], in [11] and in [12] was over 100 µM each time. The TGI in [13], in experiment [14] and in [15] was over 100 µM each time.

For the molecule `O=C(O[C@H]1[C@@H]2C=CO[C@@H](OC3OC(CO)C(O)C(O)C3O)[C@@H]2[C@@]2(CO)O[C@@H]12)c1ccc(O)c(O)c1` (stereo partly drawn), the TGI in [1], in [2], in [3], in experiment [4], in experiment [5] and in experiment [17] was over 100 µM throughout. The TGI in experiment [6], in experiment [8], in experiment [9], in experiment [10], in [11] and in experiment [12] was over 100 µM each time. Moreover, the TGI in [13], in experiment [14], in experiment [15] and in [16] was over 100 µM each time.

For the molecule `COc1ccc(-c2cc(=O)c3cc(Cl)ccc3[nH]2)cc1`, the TGI in experiment [1], in experiment [2], in experiment [3], in [4], in experiment [5] and in experiment [17] was over 100 µM in each case. Moreover, the TGI in experiment [6], in experiment [7], in experiment [9], in experiment [10], in experiment [11] and in experiment [13] was over 100 µM each time. Besides, the TGI in experiment [14], in experiment [15] and in experiment [16] was over 100 µM each time.

`Cn1ccc(=NS(=O)(=O)c2ccccc2)cc1`: the TGI in experiment [1], in experiment [2], in experiment [3], in [4], in [5] and in [17] was over 100 µM in each case. In addition, the TGI in experiment [6], in experiment [8], in [9], in experiment [10], in experiment [11] and in experiment [12] was over 100 µM throughout. Further, the TGI in [13], in [14] and in experiment [15] was over 100 µM each time.

For the molecule `CO/N=C(/C(=O)Nc1c[n+](CC(=O)[O-])cs1)c1csc(N)n1`, the TGI in experiment [2], in experiment [3], in experiment [4], in experiment [5], in experiment [17] and in experiment [6] was over 100 µM throughout. The TGI in [7], in experiment [8], in experiment [9], in experiment [10], in experiment [11] and in experiment [12] was over 100 µM each time. In addition, the TGI in experiment [13], in experiment [14], in [15] and in experiment [16] was over 100 µM in each case.

Consider `COc1cccc(C=O)c1[O-].COc1cccc(C=O)c1[O-].[Zn+2]`, for which the TGI in experiment [1], in experiment [2], in experiment [3], in experiment [4], in experiment [5] and in [17] was over 100 µM in each case. In addition, the TGI in experiment [6] was 92.6 µM; in [7] it was over 100 µM; in experiment [8] it was over 100 µM; in [9], over 100 µM; in experiment [10] it was over 100 µM; in experiment [11], over 100 µM. For the same molecule, the TGI in experiment [12], in [13], in experiment [15] and in experiment [16] was over 100 µM each time.

Regarding `O=C1NC(=S)NC(=O)C1=CC1CC1`, the TGI in experiment [1], in experiment [2], in experiment [3], in experiment [4], in experiment [5] and in [17] was over 100 µM throughout. Further, the TGI in experiment [7], in [8], in experiment [9], in [10], in [11] and in experiment [12] was over 100 µM each time. The TGI in [13], in [14], in experiment [15] and in experiment [16] was over 100 µM throughout.

Regarding `Cc1cc2c(=O)c(C)n[nH]c2c(C#N)c1C`, the TGI in experiment [1], in experiment [2], in experiment [4], in experiment [17], in [6] and in experiment [7] was over 100 µM throughout. Moreover, the TGI in experiment [8], in [9], in experiment [10], in experiment [11], in experiment [13] and in [14] was over 100 µM in each case. Besides, the TGI in experiment [15] and in experiment [16] was over 100 µM throughout.

As to `O=c1[nH]nc(CNc2ccc(Cl)cc2Cl)c2ccccc12`, the TGI in experiment [1] was 60.8 µM; in experiment [2], over 100 µM; in experiment [3] it was over 100 µM; in experiment [4] it was over 100 µM; in experiment [5] it was over 100 µM; in experiment [17], over 100 µM. Further, the TGI in experiment [6] is 40.3 µM; in experiment [7], 81.2 µM; in experiment [8], 37.9 µM; in experiment [9], over 100 µM; in [10], 60.7 µM; in experiment [11], over 100 µM. Besides, the TGI in [12] was 33.7 µM; in experiment [14] it was over 100 µM; in [15], 45.7 µM; in experiment [16] it was 97 µM.

As for `Nc1ccn(CCOC(c2ccccc2)P(=O)(O)O)c(=O)n1` (stereo not drawn), the TGI in experiment [1], in experiment [2], in [3], in experiment [4], in experiment [17] and in experiment [6] was over 100 µM each time. In addition, the TGI in [7], in experiment [8], in [9], in [10], in [12] and in experiment [13] was over 100 µM in each case. In addition, the TGI in experiment [14], in experiment [15] and in experiment [16] was over 100 µM each time.

As to `CCCCCCCC(=O)OC[C@H](C[As](=O)(O)O)OC(=O)CCCCCCC`, the TGI in experiment [1] was found to be 32.3 µM; in [4], 20 µM; in [5], 41.6 µM; in [17], 14.1 µM; in experiment [7] it was 17.6 µM; in experiment [8], 19.1 µM. Further, the TGI came out at 27.3 µM in [10]; 32.4 µM in experiment [11]; 25.3 µM in experiment [12]; 28.2 µM in experiment [13]; 22 µM in [14]; 21.7 µM in experiment [16].

As to `CS(=O)(=O)NNS(=O)(=O)c1ccc(F)cc1`, the TGI in experiment [1], in experiment [2], in experiment [3], in experiment [4], in experiment [5] and in experiment [17] was over 100 µM throughout. The TGI in [6], in [7], in [8], in experiment [10], in [11] and in experiment [12] was over 100 µM in each case. The TGI in experiment [13], in experiment [14], in experiment [15] and in [16] was over 100 µM throughout.

Take `CN/N=C(\C)C(CN1CCCCC1)C(C1=C(O)c2ccccc2OC1)c1ccccc1` (stereo not drawn): the TGI in [1], in [2], in [3], in [4], in experiment [5] and in experiment [17] was over 100 µM throughout. Moreover, the TGI in experiment [6], in [7], in experiment [8], in experiment [9], in experiment [10] and in experiment [11] was over 100 µM each time. Also, the TGI in experiment [13], in [14], in experiment [15] and in experiment [16] was over 100 µM each time.
